This test deals with ILK, Akt (serine 473) in C2C12 myoblasts and embryonic heart explants. The test can be described thus: ILK localization/expression and Akt phosphorylation by immunocytochemistry and western blot. Type of test: cell-based. As to conditions: COS1 or C2C12 cells; F-actin polymerization inhibited; data not shown. The method, then:
Immunocytochemistry on collagen gel explants. Paraformaldehyde-fixed explants were permeabilized for 10 min at room temperature with Permeabilize solution (10 mM PIPES pH 6.8; 50 mM NaCl, 0.5% Triton X-100, 300 mM sucrose, 3 mM MgCl2) and rinsed with PBS twice for 5 min each at room temperature. After a series of blocking and rinsing steps, detection antibodies were used and explants rinsed and incubated with equilibration buffer (Anti-Fade kit) for 10 min at room temperature. Explants were scooped to a glass microscope slide, covered and examined by fluorescein microscopy. TUNEL assay was performed using ApopTag plus fluorescein in situ apoptosis detection kit (Intergen Company S7111) as recommended.
Because recruitment of ILK to the focal adhesion complex is important for its activation, the inventors assayed the effects of thymosin β4 on ILK localization and expression. […] Because thymosin β4 sequesters the pool of G-actin monomers, the inventors asked whether the effects on ILK activation were dependent on the role of thymosin β4 in regulating the balance between polymerized F-actin and monomeric G-actin.
In general terms: In western blotting, separated proteins are transferred to a membrane and probed.

Regarding C3 transferase [reference compound], the “effect on thymosin β4-induced ILK activation” value is “neither intervention affected the ILK activation”.
